Measurements as given in PubChem BioAssay AID256 (DTP/NCI, 2004).
Values joined by “and” are separate entries in the source; they are usually repeats but may differ in a detail not shown here. Equal values may be shown once. Inconclusive results and toxic doses are left out.

Test system: CD2F1 mice, L1210 leukemia ip, survival T/C
Experiment: NCI In Vivo Anticancer Drug Screen. Data for tumor model L1210 Leukemia (intraperitoneal) in CD2F1 (CDF1) mice
Conditions: endpoint: mean survival time, higher = longer survival
Method in brief: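 Transplantable tumor in mice; compound-treated vs vehicle-treated groups. Read-out = treated/control ratio of the measured endpoint.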

[1] = dose: 100.0 mg/kg/injection, schedule: Q04DX003 (ip), vehicle: saline with Tween-80
[2] = dose: 200.0 mg/kg/injection, schedule: Q04DX003 (ip), vehicle: saline with Tween-80
[3] = dose: 400.0 mg/kg/injection, schedule: Q04DX003 (ip), vehicle: saline with Tween-80
[4] = dose: 100.0 mg/kg/injection, schedule: Q01DX001 (ip), vehicle: saline with Tween-80
[5] = dose: 200.0 mg/kg/injection, schedule: Q01DX001 (ip), vehicle: saline with Tween-80
[6] = dose: 400.0 mg/kg/injection, schedule: Q01DX001 (ip), vehicle: saline with Tween-80
[7] = dose: 100.0 mg/kg/injection, schedule: Q01DX009 (ip), vehicle: saline with Tween-80
[8] = dose: 400.0 mg/kg/injection, schedule: Q01DX009 (ip), vehicle: saline with Tween-80
[9] = dose: 25.0 mg/kg/injection, schedule: Q01DX009 (ip), vehicle: saline
[10] = dose: 100.0 mg/kg/injection, schedule: Q01DX001 (ip), vehicle: saline
[11] = dose: 200.0 mg/kg/injection, schedule: Q01DX001 (ip), vehicle: saline
[12] = dose: 400.0 mg/kg/injection, schedule: Q01DX001 (ip), vehicle: saline
[13] = dose: 50.0 mg/kg/injection, schedule: Q01DX009 (ip), vehicle: saline with Tween-80
[14] = dose: 200.0 mg/kg/injection, schedule: Q01DX009 (ip), vehicle: saline with Tween-80
[15] = dose: 100.0 mg/kg/injection, schedule: Q04DX002 (ip), vehicle: saline with Tween-80
[16] = dose: 200.0 mg/kg/injection, schedule: Q04DX002 (ip), vehicle: saline with Tween-80
[17] = dose: 400.0 mg/kg/injection, schedule: Q04DX002 (ip), vehicle: saline with Tween-80
[18] = dose: 25.0 mg/kg/injection, schedule: Q01DX009 (ip), vehicle: saline with Tween-80
[19] = dose: 12.5 mg/kg/injection, schedule: Q01DX009 (ip), vehicle: saline with Tween-80
[20] = dose: 100.0 mg/kg/injection, schedule: Q01DX009 (ip), vehicle: saline

## O=c1[nH]c(C(Cl)(Cl)Cl)nc2ccc(Cl)cc12
[1]
  T/C: 101 % of control
[2]
  T/C: 96 % of control
[3]
  T/C: 98 % of control

## C[n+]1ccc(Nc2ccc(NC(=O)c3ccc(Nc4ccnc5ccc([N+](=O)[O-])cc45)cc3[N+](=O)[O-])cc2)cc1
[4]
  T/C: 96 % of control
[5]
  T/C: 95 % of control
[6]
  T/C: 93 % of control

## O=C1c2ccccc2SCCC1C(O)c1ccccc1 (configuration not stated)
[4]
  T/C: 94 % of control
[5]
  T/C: 94 % of control
[6]
  T/C: 94 % of control

## CN1CCCN(C)C1c1cc(Br)ccc1O
dose: 6.25 mg/kg/injection, schedule: Q01DX009 (ip), vehicle: saline sonified
  T/C: 100 % of control
dose: 12.5 mg/kg/injection, schedule: Q01DX009 (ip), vehicle: saline sonified
  T/C: 104 % of control
dose: 25.0 mg/kg/injection, schedule: Q01DX009 (ip), vehicle: saline sonified
  T/C: 94 % of control
[1]
  T/C: 101 % of control
[2]
  T/C: 95 % of control
[3]
  T/C: 95 % of control

## CCOC(=O)C(C)(C)Br
dose: 100.0 mg/kg/injection, schedule: Q01DX009 (ip), vehicle: saline sonified
  T/C: 105 % of control
[7]
  T/C: 102 % of control
[1]
  T/C: 95 % of control and 98 % of control and 103 % of control
dose: 200.0 mg/kg/injection, schedule: Q01DX009 (ip), vehicle: saline sonified
  T/C: 100 % of control
[2]
  T/C: 95 % of control and 98 % of control and 100 % of control
dose: 400.0 mg/kg/injection, schedule: Q01DX009 (ip), vehicle: saline sonified
  T/C: 106 % of control
[8]
  T/C: 90 % of control
[3]
  T/C: 96 % of control and 103 % of control and 106 % of control

## [Cl][Pt+2][Cl].[NH-]CCO.[NH-]CCO
dose: 12.5 mg/kg/injection, schedule: Q04DX003 (ip), vehicle: saline
  T/C: 102 % of control
dose: 50.0 mg/kg/injection, schedule: Q04DX003 (ip), vehicle: saline
  T/C: 118 % of control

## CC(C)(C)CC(C)(C)c1ccc(OCCOc2ccc(CC(=S)N3CCOCC3)cc2)cc1
dose: 100.0 mg/kg/injection, schedule: Q01DX009 (ip), vehicle: Klucel (hydroxypropylcellulose) (HPC)
  T/C: 96 % of control
[1]
  T/C: 93 % of control
dose: 200.0 mg/kg/injection, schedule: Q01DX009 (ip), vehicle: Klucel (hydroxypropylcellulose) (HPC)
  T/C: 95 % of control
[2]
  T/C: 95 % of control
dose: 400.0 mg/kg/injection, schedule: Q01DX009 (ip), vehicle: Klucel (hydroxypropylcellulose) (HPC)
  T/C: 98 % of control
[3]
  T/C: 87 % of control

## O=C(NC(C(=O)NC(C(=O)O)C1CC(Cl)=NO1)C1CC(Cl)=NO1)OCC1c2ccccc2-c2ccccc21 (configuration not stated)
dose: 1.6 mg/kg/injection, schedule: Q01DX009 (ip), vehicle: saline
  T/C: 122 % of control
dose: 3.1 mg/kg/injection, schedule: Q01DX009 (ip), vehicle: saline
  T/C: 116 % of control
[9]
  T/C: 87 % of control

## COc1ccc(CCNC(=O)Cc2cc3c(cc2[N+](=O)[O-])OCO3)cc1OC
[10]
  T/C: 95 % of control
[11]
  T/C: 94 % of control
[12]
  T/C: 95 % of control

## CCCCCCCCC(=O)CC
dose: 100.0 mg/kg/injection, schedule: Q04DX003 (ip), vehicle: saline
  T/C: 98 % of control
dose: 200.0 mg/kg/injection, schedule: Q04DX003 (ip), vehicle: saline
  T/C: 98 % of control
dose: 400.0 mg/kg/injection, schedule: Q04DX003 (ip), vehicle: saline
  T/C: 93 % of control

## N#CC1c2ccccc2C=CN1C(=O)OCc1ccccc1 (configuration not stated)
dose: 100.0 mg/kg/injection, schedule: Q04DX003 (ip), vehicle: Klucel (hydroxypropylcellulose) (HPC)
  T/C: 91 % of control
dose: 200.0 mg/kg/injection, schedule: Q04DX003 (ip), vehicle: Klucel (hydroxypropylcellulose) (HPC)
  T/C: 110 % of control
dose: 400.0 mg/kg/injection, schedule: Q04DX003 (ip), vehicle: Klucel (hydroxypropylcellulose) (HPC)
  T/C: 106 % of control

## O=NN(CCCl)C(=O)Nc1ccc2c(c1)OCO2
dose: 44.0 mg/kg/injection, schedule: Q01DX001 (ip), vehicle: other
  T/C: 156 % of control
dose: 66.0 mg/kg/injection, schedule: Q01DX001 (ip), vehicle: other
  T/C: 216 % of control
dose: 100.0 mg/kg/injection, schedule: Q01DX001 (ip), vehicle: other
  T/C: 277 % of control
dose: 150.0 mg/kg/injection, schedule: Q01DX001 (ip), vehicle: other
  T/C: 171 % of control

## COc1cc([N+](=O)[O-])c2nc(/C=N/NC(N)=S)ccc2c1
[10]
  T/C: 89 % of control

## O=C(CNC(=O)Nc1cccc([N+](=O)[O-])c1)N/N=C/C=C/c1ccccc1
[13]
  T/C: 88 % of control
[14]
  T/C: 88 % of control

## CC1C(=O)OC2C1CCC1(C)C=CC(=O)C3(C)OC213 (configuration not stated)
[15]
  T/C: 108 % of control and 104 % of control
[16]
  T/C: 108 % of control and 124 % of control
[17]
  T/C: 120 % of control

## CN(C(=O)N(CCCl)N=O)C1CCCCC1
dose: 16.0 mg/kg/injection, schedule: Q01DX001 (ip), vehicle: saline with Tween-80
  T/C: 96 % of control
dose: 24.0 mg/kg/injection, schedule: Q01DX001 (ip), vehicle: saline with Tween-80
  T/C: 98 % of control
dose: 36.0 mg/kg/injection, schedule: Q01DX001 (ip), vehicle: saline with Tween-80
  T/C: 108 % of control
dose: 54.0 mg/kg/injection, schedule: Q01DX001 (ip), vehicle: saline with Tween-80
  T/C: 110 % of control
dose: 80.0 mg/kg/injection, schedule: Q01DX001 (ip), vehicle: saline with Tween-80
  T/C: 123 % of control
dose: 180.0 mg/kg/injection, schedule: Q01DX001 (ip), vehicle: saline with Tween-80
  T/C: 236 % of control
dose: 268.0 mg/kg/injection, schedule: Q01DX001 (ip), vehicle: saline with Tween-80
  T/C: 396 % of control
[6]
  T/C: 353 % of control

## O=C1NCCN1c1ncc([N+](=O)[O-])s1
[18]
  T/C: 101 % of control
[13]
  T/C: 97 % of control
[7]
  T/C: 97 % of control

## O=C1NC(=O)c2cc(C(F)(F)F)ccc21
dose: 6.25 mg/kg/injection, schedule: Q01DX009 (ip), vehicle: saline with Tween-80
  T/C: 95 % of control
[19]
  T/C: 89 % of control
dose: 12.5 mg/kg/injection, schedule: Q04DX003 (ip), vehicle: saline with Tween-80
  T/C: 101 % of control
dose: 25.0 mg/kg/injection, schedule: Q04DX003 (ip), vehicle: saline with Tween-80
  T/C: 100 % of control

## CC1(C)C2C(Br)C3OC(=O)C(C2C(=O)O)C31 (configuration not stated)
[7]
  T/C: 96 % of control
[1]
  T/C: 91 % of control
[14]
  T/C: 96 % of control
[2]
  T/C: 96 % of control
[8]
  T/C: 93 % of control
[3]
  T/C: 91 % of control

## O=C1CCC(=O)N1C1c2ccccc2Oc2ccccc21
[20]
  T/C: 96 % of control
dose: 200.0 mg/kg/injection, schedule: Q01DX009 (ip), vehicle: saline
  T/C: 91 % of control
dose: 400.0 mg/kg/injection, schedule: Q01DX009 (ip), vehicle: saline
  T/C: 92 % of control

## O=P1(N(CCCl)CCCl)OC(c2ccccc2)=CCN1c1ccccc1 (configuration not stated)
dose: 31.25 mg/kg/injection, schedule: Q01DX001 (ip), vehicle: saline
  T/C: 103 % of control
dose: 62.5 mg/kg/injection, schedule: Q01DX001 (ip), vehicle: saline
  T/C: 97 % of control
dose: 125.0 mg/kg/injection, schedule: Q01DX001 (ip), vehicle: saline
  T/C: 100 % of control
dose: 250.0 mg/kg/injection, schedule: Q01DX001 (ip), vehicle: saline
  T/C: 100 % of control
dose: 500.0 mg/kg/injection, schedule: Q01DX001 (ip), vehicle: saline
  T/C: 103 % of control

## CC1(C)C(=O)C2(I)CCC1C2 (configuration not stated)
[1]
  T/C: 101 % of control
[2]
  T/C: 98 % of control
[3]
  T/C: 98 % of control

## C/C=C/C=C/C(=O)c1ccc(OC)cc1O
dose: 50.0 mg/kg/injection, schedule: Q04DX002 (ip), vehicle: saline with Tween-80
  T/C: 86 % of control
[15]
  T/C: 101 % of control
[16]
  T/C: 89 % of control
[17]
  T/C: 89 % of control

## CCOC/C=C/C1CCCCC1
[13]
  T/C: 117 % of control
[7]
  T/C: 97 % of control
[14]
  T/C: 97 % of control

## [Co].[N-]=C=S.[N-]=C=S.[N-]=C=S.[NH2-].[NH2-].[NH2-]
dose: 50.0 mg/kg/injection, schedule: Q01DX001 (ip), vehicle: saline with Tween-80
  T/C: 98 % of control and 101 % of control

## CC12CCCC(CCCO)(C1)NC(=O)C2 (configuration not stated)
[10]
  T/C: 101 % of control
[11]
  T/C: 101 % of control
[12]
  T/C: 101 % of control

## C#CCCO
[9]
  T/C: 113 % of control
dose: 50.0 mg/kg/injection, schedule: Q01DX009 (ip), vehicle: saline
  T/C: 98 % of control
[20]
  T/C: 105 % of control

## O=[N+]([O-])c1ccc(O)c(Cl)c1
[19]
  T/C: 86 % of control
[18]
  T/C: 89 % of control
[13]
  T/C: 106 % of control and 108 % of control
